Values joined by “and” are separate entries in the source; they are usually repeats but may differ in a detail not shown here. Equal entries are not always repeated. “Also recorded” adds a separate entry of the source.
How the values were obtained:
[1] = test system: RTV-B clone 1 (RT A98G, G190S); assay: Phenotypic susceptibility assay, RTV-B clone 1 (patient B); type: cell-based, HIV-1; conditions: >1 loss, <1 increased susceptibility
Description: (§1) Resistance tests were carried out with resistance test vectors using two host cell types. Resistance test vector viral particles were produced by a first host cell (the resistance test vector host cell) that was prepared by transfecting a packaging host cell with the resistance test vector and the packaging expression vector. The resistance test vector viral particles were then used to infect a second host cell (the target host cell) in which the expression of the indicator gene is measured.
(§2) The resistance test vectors containing a functional luciferase gene cassette were constructed and host cells were transfected with the resistance test vector DNA. The resistant test vectors contained patient-derived reverse transcriptase and protease sequences that were either susceptible or resistant to the antiretroviral agents, such as nucleoside reverse transcriptase inhibitors, non-nucleoside reverse transcriptase inhibitors and protease inhibitors. The resistance test vector viral particles produced by transfecting the resistance test vector DNA into host cells, either in the presence or absence of protease inhibitors, were used to infect target host cells grown either in the absence of NRTI or NNRTI or in the presence of increasing concentrations of the drug. […] The IC50 values were determined by plotting percent drug inhibition vs. log10 drug concentration.
(§3) Host cells were seeded in 10-cm-diameter dishes and were transfected several days after plating with resistance test vector plasmid DNA and the envelope expression vector. […] HIV capsid protein (p24) levels in the harvested cell culture media were determined by an EIA method as described by the manufacturer (SIAC; Frederick, Md.). […] The inhibitory effect of the drug was determined using the following equation: % luciferase inhibition=1-(RLUluc[drug]÷RLUluc)×100 where RLUluc [drug] is the relative light unit of luciferase activity in infected cells in the presence of drug and RLUluc is the Relative Light Unit of luciferase activity in infected cells in the absence of drug. […]

[2] = test system: RTV-1060 patient virus (RT K101E, G190S); assay: Phenotypic susceptibility assay, RTV-1060 (patient 98-1060); type: cell-based, HIV-1; conditions: >1 decreased susceptibility
Description: as §1
The resistance test vectors containing a functional luciferase gene cassette were constructed and host cells were transfected with the resistance test vector DNA. The resistant test vectors contained patient-derived reverse transcriptase and protease sequences that were either susceptible or resistant to the antiretroviral agents, such as nucleoside reverse transcriptase inhibitors, non-nucleoside reverse transcriptase inhibitors and protease inhibitors. […] The IC50 values were determined by plotting percent drug inhibition vs. log10 drug concentration.
as §3
An IC50 was determined for the resistance test vector pool for each drug tested.

[3] = test system: RTV-1033 patient virus (RT V106A, V189L, F227L); assay: Phenotypic susceptibility assay, RTV-1033 (patient 98-1033); type: cell-based, HIV-1
Description: (§4) Transfections were performed using a calcium-phosphate precipitation procedure. […] Cell lysates were assayed for luciferase activity (FIG. 3). […] The drug inhibition curves are shown in (FIG. 3).

[4] = test system: HIV-1 reverse transcriptase P236L plus K103N, Y181C or both; assay: Phenotypic susceptibility assay, P236L with K103N, Y181C or K103N+Y181C; type: cell-based; conditions: P236L added to K103N, Y181C or K103N+Y181C versus corresponding RTV lacking P236L
Description: as §4
Resistance test vectors were constructed containing the P236L mutation alone and in combination with other known drug resistance mutations (K103N, Y181C) that are known to modulate the susceptibility of HIV-1 to NNRTIs. […] The P236L mutation was also introduced into a RTV containing mutations at K103N, Y181C or both (K103N+Y181C).

[5] = test system: HIV-1 reverse transcriptase G190A (G190A-RTV); assay: Phenotypic susceptibility assay, site directed mutant G190A-RTV; type: cell-based; conditions: for change in susceptibility: G190A-RTV versus wild type reference RTV
Description: as §1
(§5) The resistance test vectors containing a functional luciferase gene cassette were constructed and host cells were transfected with the resistance test vector DNA. The resistant test vectors contained patient-derived reverse transcriptase and protease sequences that were either susceptible or resistant to the antiretroviral agents, such as nucleoside reverse transcriptase inhibitors, non-nucleoside reverse transcriptase inhibitors and protease inhibitors. The resistance test vector viral particles produced by transfecting the resistance test vector DNA into host cells, either in the presence or absence of protease inhibitors, were used to infect target host cells grown either in the absence of NRTI or NNRTI or in the presence of increasing concentrations of the drug. The amount of luciferase activity produced in infected target host cells in the presence of drug was compared to the amount of luciferase produced in infected target host cells in the absence of drug. Drug resistance was measured as the amount of drug required to inhibit by 50% the luciferase activity detected in the absence of drug (inhibitory concentration 50%, IC50). The IC50 values were determined by plotting percent drug inhibition vs. log10 drug concentration.
as §3, with “vector. Transfections were performed using a calcium-phosphate precipitation procedure. The cell culture media containing the DNA precipitate was replaced with fresh medium, from one to 24 hours, after transfection.” for “vector.”

[6] = test system: HIV-1 reverse transcriptase Y188L (Y188L-RTV); assay: Phenotypic susceptibility assay, site directed mutant Y188L-RTV; type: cell-based; conditions: >1 loss of susceptibility
Description: as §1, §2, §3

[7] = test system: HIV-1 reverse transcriptase K101E (K101E-RTV); assay: Phenotypic susceptibility assay, site directed mutant K101E-RTV; type: cell-based
Description: as §1, §5
Host cells were seeded in 10-cm-diameter dishes and were transfected several days after plating with resistance test vector plasmid DNA and the envelope expression vector. Transfections were performed using a calcium-phosphate precipitation procedure. The cell culture media containing the DNA precipitate was replaced with fresh medium, from one to 24 hours, after transfection. Cell culture media containing resistance test vector viral particles was harvested one to four days after transfection and was passed through a […] filter before being stored at −80° C. HIV capsid protein (p24) levels in the harvested cell culture media were determined by an EIA method as described by the manufacturer (SIAC; Frederick, Md.). Before infection, target cells (293 and 293/T) were plated in cell culture media. Control infections were performed using cell culture media from mock transfections (no DNA) or transfections containing the resistance test vector plasmid DNA without the envelope expression plasmid. One to three or more days after infection the media was removed and cell lysis buffer (Promega) was added to each well. […] The inhibitory effect of the drug was determined using the following equation: % luciferase inhibition=1-(RLUluc[drug]÷RLUluc)×100 where RLUluc [drug] is the relative light unit of luciferase activity in infected cells in the presence of drug and RLUluc is the Relative Light Unit of luciferase activity in infected cells in the absence of drug. IC50 values were obtained from the sigmoidal curves that were generated from the data by plotting the percent inhibition of luciferase activity vs. the log10 drug concentration. […]

[8] = test system: HIV-1 reverse transcriptase K101E + G190S (K101E-G190S-RTV); assay: Phenotypic susceptibility assay, site directed mutant K101E-G190S-RTV; type: cell-based
Description: as §1, §5
Host cells were seeded in 10-cm-diameter dishes and were transfected several days after plating with resistance test vector plasmid DNA and the envelope expression vector. Transfections were performed using a calcium-phosphate precipitation procedure. The cell culture media containing the DNA precipitate was replaced with fresh medium, from one to 24 hours, after transfection. Cell culture media containing resistance test vector viral particles was harvested one to four days after transfection and was passed through a […] filter before being stored at −80° C. HIV capsid protein (p24) levels in the harvested cell culture media were determined by an EIA method as described by the manufacturer (SIAC; Frederick, Md.). Before infection, target cells (293 and 293/T) were plated in cell culture media. Control infections were performed using cell culture media from mock transfections (no DNA) or transfections containing the resistance test vector plasmid DNA without the envelope expression plasmid. One to three or more days after infection the media was removed and cell lysis buffer (Promega) was added to each well. […] The inhibitory effect of the drug was determined using the following equation: % luciferase inhibition=1-(RLUluc[drug]÷RLUluc)×100 where RLUluc [drug] is the relative light unit of luciferase activity in infected cells in the presence of drug and RLUluc is the Relative Light Unit of luciferase activity in infected cells in the absence of drug. IC50 values were obtained from the sigmoidal curves that were generated from the data by plotting the percent inhibition of luciferase activity vs. the log10 drug concentration.
Mutations may be incorporated alone and/or in combination with other known drug resistance mutations that are thought to modulate the susceptibility of HIV to a certain drug or class of drugs. Mutations are introduced into the resistance test vector through any of the widely known methods for site-directed mutagenesis. In one embodiment of this invention the mega-primer PCR method for site-directed mutagenesis is used.

[9] = test system: HIV-1 reverse transcriptase V108I (V108I-RTV); assay: Phenotypic susceptibility assay, site directed mutant V108I-RTV; type: cell-based; conditions: >1 loss of susceptibility
Description: as §1, §2, §3

[10] = test system: HIV-1 reverse transcriptase V106A (V106A-RTV); assay: Phenotypic susceptibility assay, site directed mutant V106A-RTV; type: cell-based; conditions: >1 loss of susceptibility
Description: as §1, §2, §3

[11] = test system: HIV-1 reverse transcriptase F227L (F227L-RTV); assay: Phenotypic susceptibility assay, site directed mutant F227L-RTV; type: cell-based; conditions: >1 loss, <1 increased susceptibility
Description: as §1, §2, §3

[12] = test system: HIV-1 reverse transcriptase V106A + Y181C (V106A-Y181C-RTV); assay: Phenotypic susceptibility assay, site directed mutant V106A-Y181C-RTV; type: cell-based; conditions: >1 loss of susceptibility
Description: as §1, §2, §3

[13] = test system: HIV-1 reverse transcriptase V106A + V189L (V106A-V189L-RTV); assay: Phenotypic susceptibility assay, site directed mutant V106A-V189L-RTV; type: cell-based; conditions: >1 loss of susceptibility
Description: as §1, §2, §3

[14] = test system: HIV-1 reverse transcriptase V106A + F227L (V106A-F227-RTV); assay: Phenotypic susceptibility assay, site directed mutant V106A-F227-RTV; type: cell-based; conditions: >1 loss of susceptibility
Description: as §1, §2, §3

[15] = test system: HIV-1 reverse transcriptase Y181C + F227L (Y181C-F227L-RTV); assay: Phenotypic susceptibility assay, site directed mutant Y181C-F227L-RTV; type: cell-based; conditions: >1 loss, <1 increased susceptibility
Description: as §1, §2, §3

[16] = test system: HIV-1 reverse transcriptase V106A + Y181C + F227L (V106A-Y181C-F227L-RTV); assay: Phenotypic susceptibility assay, site directed mutant V106A-Y181C-F227L-RTV; type: cell-based; conditions: >1 loss of susceptibility
Description: as §1, §2, §3

[17] = test system: HIV-1 reverse transcriptase L100I (L100I-RTV); assay: Phenotypic susceptibility assay, site directed mutant L100I-RTV; type: cell-based; conditions: >1 loss of susceptibility
Description: as §1, §2, §3

[18] = K101E-RTV, >1 loss of susceptibility
[19] = second pair of values printed in the K101E-RTV sentence of b280
[20] = >1 loss, <1 increased susceptibility

| SMILES | fold change in susceptibility [1] | fold change in susceptibility [2] | decrease in susceptibility [3] | change in susceptibility [4] | fold change in susceptibility compared to wild type control RTV [6] | fold change in susceptibility compared to wild type control RTV [7, 18] | fold change in susceptibility compared to wild type control RTV [7, 19] | fold change in susceptibility compared to wild type control RTV ([8]; >1 loss of susceptibility) | fold change in susceptibility compared to wild type control RTV [8, 20] | fold change in susceptibility compared to wild type control RTV [9] | fold change in susceptibility compared to wild type control RTV [10] | fold change in susceptibility compared to wild type control RTV [11] | fold change in susceptibility compared to wild type control RTV [12] | fold change in susceptibility compared to wild type control RTV [13] | fold change in susceptibility compared to wild type control RTV [14] | fold change in susceptibility compared to wild type control RTV [15] | fold change in susceptibility compared to wild type control RTV [16] | fold change in susceptibility compared to wild type control RTV [17] | change in susceptibility [5] | also measured |
| --- | --- | --- | --- | --- | --- | --- | --- | --- | --- | --- | --- | --- | --- | --- | --- | --- | --- | --- | --- | --- |
| O=C1Nc2ccc(Cl)cc2[C@@](C#CC2CC2)(C(F)(F)F)O1 [efavirenz] | 250 fold | 900 fold | 200 fold | restores a significant portion of the loss of susceptibility | 109 fold and 110 fold | 5 fold | 30 fold | greater than 250 fold | 7.6 fold | 1.7 fold | 1.7 fold | 0.48 fold | 4 fold | 1 fold | 8 fold | 0.99 fold | 12 fold | 10 fold |  | fold change in susceptibility compared to wild type control RTV ([5]; G190A-RTV): 8 fold |
| CC(C)Nc1cccnc1N1CCN(C(=O)c2cc3cc(NS(C)(=O)=O)ccc3[nH]2)CC1 [delavirdine] | 0.55 fold | 1.5 fold | 30 fold | less susceptible (more resistant); also recorded: additional reduction; also recorded: severe resistance | 9 fold | 5 fold |  | 1.4 fold | 0.5 fold | 1.3 fold | 5 fold | 0.03 fold | 100 fold | 3 fold | 3 fold | 0.89 fold | 50 fold | 30 fold | slightly more susceptible; also recorded: increase; also recorded: slightly increase susceptibility | change in susceptibility ([5]; listed as delviridine): increased susceptibility |
| Cc1ccnc2c1NC(=O)c1cccnc1N2C1CC1 [nevirapine] | 640 fold | greater than 800 fold | greater than 800 fold | did not significantly alter; also recorded: little or no additional reduction; also recorded: no effect | greater than 800 fold | 12 fold | 55 fold | greater than 800 fold | 75 fold | 3 fold | 60 fold | 3 fold | greater than 800 fold | 50 fold | greater than 800 fold | 285 fold | greater than 800 fold | 3 fold | markedly less susceptible; also recorded: decrease; also recorded: greatly reduce susceptibility |  |

— US20050130134A1, “Means and methods for monitoring non-nucleoside reverse transcriptase inhibitor antiretroviral therapy and guiding therapeutic decisions in the treatment HIV-AIDS” (ViroLogic, Inc., priority 2000, published 2005)
